Data as given in patent US20250197399A1, “COMPOUNDS, COMPOSITIONS, AND METHODS” (Tenvie Therapeutics, Inc., priority 2022, published 2025).
Read-outs that look alike come from different tables or passages of the source.

System: NLRP3
Experiment: IL-1β secretion assay in PMA-differentiated, LPS/nigericin-stimulated THP-1 cells (ELISA)
Type: cell-based
Conditions: 25 ng/mL LPS then nigericin, IL-1β in supernatant
Protocol: Compounds as provided herein were tested in the following assay. Cell culture medium employed contained RPMI 1640 medium (89%), FBS (10%), Pen/Strep (1%), and 2-mercaptoethanol (0.05 mM). Freezing medium was made up of 90% FBS and 10% DMSO. THP-1 cells were removed from the liquid nitrogen and placed into a 37° C. water bath to thaw, until signs of ice dissipated. The cells were then added to 9 mL of warm cell culture medium and centrifuged for 5 minutes at 1000 rpm. The supernatant was discarded, and the cells were resuspended in new cell culture medium. THP-1 cells were then split and cultured in the cell culture medium, being passaged every 2-3 days with the cell density will be maintained between 5×10^5 and 1.5×10^6 viable cells/mL.
PMA was dissolved in DMSO to make a stock solution at 5 mg/ml and stored in 10 μl aliquots at −20° C. for single use. PMA is added to normal growth medium. LPS was diluted with 1 mL of water solution to provide a 1 mg/mL stock solution and stored in 15 μL aliquots at −20° C. for single use. Nigericin is diluted in ice cold 100% ethanol to 5 mg/ml (6.7 mM) and stored in 75 μL aliquots at −20° C. for single use. Serum-free media contains RPMI 1640 medium (99%), Pen/Strep (1%), and 2-mercaptoethanol (0.05 mM). The two control conditions used to qualify and normalize test compound dose-response curves were as follows: High Control=25 ng/mL LPS, […], 0.5% DMSO, Low Control=25 ng/mL, LPS, 0.5% DMSO.
THP-1 cells were diluted to provide a suspension at a concentration of 1.0×10^6 cells/mL with the total volume of suspension required to enable the desired number of assay plates. The growth media was supplemented with PMA (5 ng/mL final concentration) and the cells were incubated at 37° C. under a humidified atmosphere of 5% CO2 for 40 h.
All media was carefully aspirated from each culture flask. The cells were washed carefully with 1×DPBS. The cells were then briefly digested with trypsin LE for 5 minutes at 23° C. and immediately resuspended in cell growth media. After resuspension, the cells were centrifuged at 1000 rpm for 3 minutes and the supernatant was discarded. The cells were resuspended in DPBS and once again centrifuged at 1000 rpm for 5 minutes. The supernatant was discarded and the cell pellet was resuspended in serum-free media supplemented with LPS (25 ng/mL final concentration) to enable the distribution of 30K THP-1 cells within 45 μL of media into each well of 384-well PDL-coated plates. The 384-well plates were then incubated at 37° C. under a humidified atmosphere of 5% CO2 for 2 h. Following this period, test compounds were dispensed by Tecan across the desired concentration range with all wells normalized to a final 0.5% DMSO concentration. The plates were then then incubated at 37° C. under a humidified atmosphere of 5% CO2 for 1 h. Following this period, 5 μL of the 5 mg/mL nigericin stock solution was added to each of the appropriate wells and plates were centrifuged at 1000 rpm for 30 seconds. The plates were the immediately reintroduced to the incubator at 37° C. under a humidified atmosphere of 5% CO2 for 2 h. After this time, 35 μL/well of supernatant was collected and transferred into v-bottom plate and centrifuged at 1000 rpm for 1 minute. These supernatant aliquots were analyzed using an IL-Iβ detection kit as described below. If needed, the test samples could be snap frozen and stored at −80° C. until analyzed.
To prepare each ELISA plate, capture antibody (mAb Mt175) was diluted with PBS to a final concentration of […] and then 20 μL of this solution was added to each well of the ELISA plate. Each plate was allowed to incubate overnight at 4° C. The next day, the capture antibody solution was removed and discarded. Each ELISA plate was washed 4 times with PBST followed by the addition of 25 µL/well of blocking buffer (Licor-927-40010) supplemented with 0.1% Tween 20. Each ELISA plate was then allowed to incubate for 1 hour at 23° C. […]

[1] = Homo sapiens, THP-1, THP-1 cells, read-out: Activity (IC50 class)
[2] = THP-1 cells, read-out: Activity
[3] = THP-1 cells, read-out: Activity (IC50 class)
[4] = Homo sapiens, THP-1, THP-1 cells, read-out: Activity

Row | IC50 [1] | IC50 [2] | IC50 [3] | IC50 [4] | Compound
1 | < 1 µM | 0.126 µM | – | – | O=C(CN1CC2(CC2(F)F)c2cc(C(F)(F)F)ccc2C1=O)Nc1ncc(Cl)cn1 (single isomer, unassigned) [Example 38, N-(5-chloropyrimidin-2-yl)-2-[1′,1′-difluoro-6-(trifluoromethyl)-1-oxospiro[3H-isoquinoline-4,2′-cyclopropane]-2-yl]acetamide]
2 | – | 0.024 µM | < 1 µM | – | O=C(CN1C[C@]2(C[C@H]2F)c2cc(C(F)(F)F)ccc2C1=O)Nc1ncc2cn[nH]c2n1 (single isomer, unassigned) [Example 48, 2-[(2′s,4r)-2′-fluoro-1-oxo-6-(trifluoromethyl)spiro[3H-isoquinoline-4,1′-cyclopropane]-2-yl]-N-(1H-pyrazolo[3,4-d]pyrimidin-6-yl)acetamide]
3 | – | 0.067 µM | < 1 µM | – | O=C(CN1CC2(CC2(F)F)c2cc(C(F)(F)F)ccc2C1=O)Nc1ncc(F)cn1 (single isomer, unassigned) [Example 41, N-(5-fluoropyrimidin-2-yl)-2-[1′,1′-difluoro-6-(trifluoromethyl)-1-oxospiro[3H-isoquinoline-4,2′-cyclopropane]-2-yl]acetamide]
4 | – | 0.472 µM | < 1 µM | – | C[C@]1(O)C[C@@H](NC(=O)CN2CC3(CC3(F)F)c3cc(C(F)(F)F)ccc3C2=O)C1 (single isomer, unassigned) [Example 53, 2-[1′,1′-difluoro-1-oxo-6-(trifluoromethyl)spiro[3H-isoquinoline-4,2′-cyclopropane]-2-yl]-N-(3-cis-hydroxy-3-methylcyclobutyl)acetamide]
5 | – | 0.363 µM | < 1 µM | – | O=C(CN1CC2(CC2)c2cc(Br)ccc2C1=O)NC1CC(O)(C2CC2)C1 (single isomer, unassigned) [Example 56, 2-(6-bromo-1-oxospiro[3H-isoquinoline-4,1′-cyclopropane]-2-yl)-N-(3-cyclopropyl-3-hydroxycyclobutyl)acetamide]
6 | – | 0.086 µM | < 1 µM | – | O=C(CN1CC2(CC2(F)F)c2cc(C3CC3)ccc2C1=O)Nc1ncc(F)cn1 (single isomer, unassigned) [Example 29, N-(5-fluoropyrimidin-2-yl)-2-[6-cyclopropyl-1′,1′-difluoro-1-oxospiro[3H-isoquinoline-4,2′-cyclopropane]-2-yl]acetamide]
7 | 1 to 10 µM | 5.88 µM | – | – | O=C(CN1CC2(CC2(F)F)c2cc(C3(F)CC3)ccc2C1=O)Nc1ncc(F)cn1 (single isomer, unassigned) [Example 26, N-(5-fluoropyrimidin-2-yl)-2-[1′,1′-difluoro-6-(1-fluorocyclopropyl)-1-oxospiro[3H-isoquinoline-4,2′-cyclopropane]-2-yl]acetamide]
8 | < 1 µM | – | – | 0.002 µM | C[C@]1(O)C[C@@H](NC(=O)CN2C[C@]3(C[C@H]3F)c3c(ccc(I)c3F)C2=O)C1 [Example 5, N-(3-cis-hydroxy-3-methylcyclobutyl)-2-[(2′s,4r)-2′,5-difluoro-6-iodo-1-oxospiro[3H-isoquinoline-4,1′-cyclopropane]-2-yl]acetamide]

Second part, the compound before the results:

Row | Compound | IC50 [1] | IC50 [2] | IC50 [3] | IC50 [4]
9 | Cc1cnc(NC(=O)CN2CC3(CC3(F)F)c3c(ccc(Br)c3F)C2=O)nc1 (single isomer, unassigned) [Example 32, N-(5-methylpyrimidin-2-yl)-2-[6-bromo-1′,1′,5-trifluoro-1-oxospiro[3H-isoquinoline-4,2′-cyclopropane]-2-yl]acetamide] | – | 28.6 µM | > 10 µM | –
10 | O=C(CN1CC2(CC2(F)F)c2c(ccc(C3CC3)c2F)C1=O)Nc1ncc(Cl)cn1 (single isomer, unassigned) [Example 34, N-(5-chloropyrimidin-2-yl)-2-[6-cyclopropyl-1′,1′,5-trifluoro-1-oxospiro[3H-isoquinoline-4,2′-cyclopropane]-2-yl]acetamide] | 1 to 10 µM | 15.6 µM | – | –
11 | O=C(CN1CC2(CC2(F)F)c2cc(Br)ccc2C1=O)Nc1ncc(Cl)cn1 (single isomer, unassigned) [Example 17, N-(5-chloropyrimidin-2-yl)-2-[6-bromo-1′,1′-difluoro-1-oxospiro[3H-isoquinoline-4,2′-cyclopropane]-2-yl]acetamide] | – | 0.028 µM | < 1 µM | –
12 | O=C(CN1CC2(CC2)c2cc(Br)ccc2C1=O)Nc1ncc2cn[nH]c2n1 [Example 42, 2-(6-bromo-1-oxo-spiro[3H-isoquinoline-4,1′-cyclopropane]-2-yl)-N-(1H-pyrazolo[3,4-d]pyrimidin-6-yl)acetamide] | < 1 µM | – | – | 0.061 µM
13 | Cc1cnc(NC(=O)CN2CC3(CC3(F)F)c3c(ccc(C4CC4)c3F)C2=O)nc1 (single isomer, unassigned) [Example 37, N-(5-methylpyrimidin-2-yl)-2-[6-cyclopropyl-1′,1′,5-trifluoro-1-oxospiro[3H-isoquinoline-4,2′-cyclopropane]-2-yl]acetamide] | – | 0.078 µM | < 1 µM | –
14 | O=C(CN1CC2(CC2(F)F)c2c(ccc(C(F)(F)F)c2F)C1=O)Nc1ncc(Cl)cn1 (single isomer, unassigned) [Example 15, N-(5-chloropyrimidin-2-yl)-2-[1′,1′,5-trifluoro-6-(trifluoromethyl)-1-oxospiro[3H-isoquinoline-4,2′-cyclopropane]-2-yl]acetamide] | – | 0.063 µM | < 1 µM | –
15 | Cc1cnc(NC(=O)CN2CC(C(F)(F)F)c3cc(I)ccc3C2=O)nc1 (centres unmarked) [Example 8, 2-(6-iodo-1-oxo-4-(trifluoromethyl)-3,4-dihydroisoquinolin-2(1H)-yl)-N-(5-methylpyrimidin-2-yl)acetamide] | < 1 µM | – | – | 0.044 µM
16 | O=C(CN1CC2(CC2(F)F)c2cc(Br)ccc2C1=O)Nc1ncc2cn[nH]c2n1 (single isomer, unassigned) [Example 64, 2-(6-bromo-1′,1′-difluoro-1-oxospiro[3H-isoquinoline-4,2′-cyclopropane]-2-yl)-N-(1H-pyrazolo[3,4-d]pyrimidin-6-yl)acetamide] | < 1 µM | 0.008 µM | – | –
17 | O=C(CN1CC2(CC2(F)F)c2c(ccc(C3CC3)c2F)C1=O)Nc1ncc(Cl)cn1 (single isomer, unassigned) [Example 35, N-(5-chloropyrimidin-2-yl)-2-[6-cyclopropyl-1′,1′,5-trifluoro-1-oxospiro[3H-isoquinoline-4,2′-cyclopropane]-2-yl]acetamide] | – | 0.016 µM | < 1 µM | –
18 | O=C(CN1C[C@@]2(C[C@@H]2F)c2c(ccc(C(F)(F)F)c2F)C1=O)Nc1ncc(Cl)cn1 (single isomer, unassigned) [Example 12, 2-[(2′s,4r)-2′,5-difluoro-1-oxo-6-(trifluoromethyl)spiro[3H-isoquinoline-4,1′-cyclopropane]-2-yl]-N-(5-chloropyrimidin-2-yl)acetamide] | < 1 µM | 0.054 µM | – | –
19 | O=C(CN1C[C@]2(C[C@H]2F)c2cc(Br)ccc2C1=O)Nc1ncc2cn[nH]c2n1 [Example 54, 2-[(2′R,4S)-6-bromo-2′-fluoro-1-oxospiro[3H-isoquinoline-4,1′-cyclopropane]-2-yl]-N-(1H-pyrazolo[3,4-d]pyrimidin-6-yl)acetamide] | < 1 µM | – | – | 0.005 µM
